This passage reports melting point results from US9617244B2, “Antibacterial quinoline derivatives” (JANSSEN PHARMACEUTICA NV, priority 2012, dated 2017).

Where a name gives a salt, the structure may show the parent alone. Where only a bound is given, the exact number is not on record here.

As usually defined, the melting point is the temperature, or range, at which the solid turns liquid.

`COc1nc2ccc(F)cc2cc1C(c1ccc(S(C)(=O)=O)cc1)C1(O)CCNC(c2ccc(F)cc2C)C1` (stereo not drawn) (as salt: fumarate) [Compound 418] displayed a melting point of 164 to 166 °C. Then `COc1nc2ccc(Br)cc2cc1C(c1cccnc1)C1(O)CCNC(Cc2ccccc2)C1` (stereo not drawn) (as salt: fumarate) [Compound 427], with 174 °C. `COc1nc2ccc(Br)cc2cc1C(c1cccnc1)C1(O)CCNC(Cc2ccccc2)C1` (stereo not drawn) (as salt: fumarate) [Compound 428] displayed a melting point of 217 °C. Regarding `COc1nc2ccc(Br)cc2cc1C(n1cccn1)C1(O)CCNC(Cc2ccccc2)C1` (stereo not drawn) (as salt: fumarate) [Compound 429], the melting point is above 260 °C.

Molecule `COc1nc2ccc(Cl)cc2cc1C(c1ccc(Cl)cc1)C1(O)CCNC(c2ccc3ccccc3c2)C1` (stereo not drawn) (as salt: fumarate) [Compound 430] gave a melting point of 184 °C. `COc1nc2ccc(Cl)cc2cc1C(c1ccc(Cl)cc1)C1(O)CCNC(c2ccc3ccccc3c2)C1` (stereo not drawn) (as salt: fumarate) [Compound 431] returned a melting point of 178 °C. In turn, `COc1nc2ccc(Cl)cc2cc1C(c1ccc(Cl)cc1)C1(O)CCNC(c2ccc3ccccc3c2)C1` (stereo not drawn) (as salt: fumarate) [Compound 432] had a melting point of 167 °C. In the case of `COc1nc2ccccc2cc1C(c1ccccc1)C1(O)CCNC(c2ccc(F)cc2C)C1` (stereo not drawn) (as salt: fumaric acid salt) [Compound 16] it was 166 to 168 °C; in that of `O=c1[nH]c2ccc(Br)cc2cc1C(c1ccc(Cl)cc1)C1(O)CCNC(Cc2ccc(F)c(F)c2)C1` (stereo not drawn) (as salt: hydrochloride) [Compound 40], 224 °C; in that of `O=c1[nH]c2ccc(Br)cc2cc1C(c1ccc(Cl)cc1)C1(O)CCNCC1Cc1cccc(F)c1` (stereo not drawn) (as salt: hydrochloride) [Compound 49], 183 °C.

In the case of `O=c1[nH]c2ccc(Br)cc2cc1C(c1cccc(Cl)c1)C1(O)CCNC(Cc2ccccc2)C1` (stereo not drawn) (as salt: hydrochloride) [Compound 85], the melting point was above 260 °C. `Cc1cc(F)ccc1C1CC(O)(C(c2ccc(Cl)cc2)c2cc3cc(Br)ccc3[nH]c2=O)CCN1` (stereo not drawn) (as salt: hydrochloride) [Compound 106] yielded a melting point above 250 °C. Molecule `O=c1[nH]c2ccc(Br)cc2cc1[C@@H](c1ccc(Cl)cc1)[C@]1(O)CCNC(Cc2ccccc2)C1` (stereo partly drawn) (as salt: hydrochloride) [Compound 121] registered a melting point above 260 °C.

`O=c1[nH]c2ccc(Br)cc2cc1C(c1ccc(Cl)cc1)C1(O)CCNC(Cc2ccc(F)c(F)c2)C1` (stereo not drawn) (as salt: hydrochloride) [Compound 126] showed a melting point above 260 °C. In the case of `CC1CC(O)(C(c2ccc(Cl)cc2)c2cc3cc(Br)ccc3[nH]c2=O)CCN1` (stereo not drawn) (as salt: hydrochloride) [Compound 129], the melting point was found to be 240 °C. Molecule `CC1CC(O)(C(c2ccc(Cl)cc2)c2cc3cc(Br)ccc3[nH]c2=O)CCN1` (stereo not drawn) (as salt: hydrochloride) [Compound 130] came in with a melting point of 200 °C. In turn, `CC1CC(O)(C(c2ccc(Cl)cc2)c2cc3cc(Br)ccc3[nH]c2=O)CCN1` (stereo not drawn) (as salt: hydrochloride) [Compound 131] came in with a melting point of 241 °C. In the case of `CC1CC(O)(C(c2ccc(Cl)cc2)c2cc3cc(Br)ccc3[nH]c2=O)CCN1` (stereo not drawn) (as salt: hydrochloride) [Compound 132] it was 244 °C; in that of `O=c1[nH]c2ccc(Br)cc2cc1C(c1ccc(Cl)cc1)C1(O)CCNC(Cc2ccc(F)c(F)c2)C1` (stereo not drawn) (as salt: hydrochloride) [Compound 134], 233 °C; in that of `Cc1cc(F)ccc1C1CC(O)(C(c2cccc(Cl)c2)c2cc3cc(Br)ccc3[nH]c2=O)CCN1` (stereo not drawn) (as salt: hydrochloride) [Compound 135], above 250 °C. `Cc1cc(F)ccc1C1CC(O)(C(c2cccc(Cl)c2)c2cc3cc(S(C)(=O)=O)ccc3[nH]c2=O)CCN1` (stereo not drawn) (as salt: hydrochloride) [Compound 159]: the melting point was above 250 °C.

Molecule `CSc1ccc2[nH]c(=O)c(C(c3cccc(Cl)c3)C3(O)CCNC(c4ccc(F)cc4C)C3)cc2c1` (stereo not drawn) (as salt: hydrochloride) [Compound 160] had a melting point above 250 °C. `Cc1cc(F)ccc1C1CC(O)(C(c2ccccc2)c2cc3cc(Br)ccc3[nH]c2=O)CCN1` (stereo not drawn) (as salt: hydrochloride) [Compound 192] registered a melting point above 250 °C.

In the case of `CS(=O)(=O)c1ccc2[nH]c(=O)c(C(c3ccc(Cl)cc3)C3(O)CCNC(Cc4ccc(F)c(F)c4)C3)cc2c1` (stereo not drawn) (as salt: hydrochloride) [Compound 212], the melting point was above 250 °C.

As to `Cc1cc(F)ccc1C1CC(O)(C(c2ccc(Cl)cc2)c2cc3cc(S(C)(=O)=O)ccc3[nH]c2=O)CCN1` (stereo not drawn) (as salt: hydrochloride) [Compound 220], the melting point was above 250 °C. In the case of `O=c1[nH]c2ccc(Br)cc2cc1C(c1ccc(Cl)cc1)C1(O)CCNCC1Cc1cccc(F)c1` (stereo not drawn) (as salt: hydrochloride) [Compound 229], the melting point was above 250 °C. On to `CSc1ccc2[nH]c(=O)c(C(c3ccc(Cl)cc3)C3(O)CCNC(c4ccccc4)C3)cc2c1` (stereo not drawn) (as salt: hydrochloride) [Compound 230], for which the melting point was above 250 °C.

On to `Cc1cc(F)ccc1C1CC(O)(C(c2ccccc2)c2cc3cc(-c4cccnc4)ccc3[nH]c2=O)CCN1` (stereo not drawn) (as salt: hydrochloride) [Compound 236], for which the melting point is above 250 °C.

Molecule `Cc1cc(F)ccc1C1CC(O)(C(c2ccccc2)c2cc3cc(S(C)(=O)=O)ccc3[nH]c2=O)CCN1` (stereo not drawn) (as salt: hydrochloride) [Compound 237] had a melting point above 250 °C.

Regarding `O=c1[nH]c2ccc(Cl)cc2cc1C(c1ccc(Cl)cc1)C1(O)CCNC(Cc2ccccc2)C1` (stereo not drawn) (as salt: hydrochloride) [Compound 239], the melting point was above 250 °C. The molecule `O=c1[nH]c2ccc(Br)cc2cc1C(c1ccc(Cl)cc1)C1(O)CCNC(CC2CCCCC2)C1` (stereo not drawn) (as salt: hydrochloride) [Compound 254] displayed a melting point above 250 °C. Then `CSc1ccc2[nH]c(=O)c(C(c3ccc(Cl)cc3)C3(O)CCNC(c4ccc(F)cc4C)C3)cc2c1` (stereo not drawn) (as salt: hydrochloride) [Compound 266], with above 250 °C.

On to `CSc1ccc2[nH]c(=O)c(C(c3ccc(Cl)cc3)C3(O)CCNC(Cc4ccc(F)cc4)C3)cc2c1` (stereo not drawn) (as salt: hydrochloride) [Compound 281], for which the melting point is above 250 °C. `CSc1ccc2[nH]c(=O)c(C(c3ccc(Cl)cc3)C3(O)CCNC(Cc4ccc(F)cc4)C3)cc2c1` (stereo not drawn) (as salt: hydrochloride) [Compound 282] came in with a melting point of 206 °C. `CSc1ccc2[nH]c(=O)c(C(c3ccc(Cl)cc3)C3(O)CCNC(CC4CCCCC4)C3)cc2c1` (stereo not drawn) (as salt: hydrochloride) [Compound 295] registered a melting point above 250 °C. Turning to `Cc1cc(F)ccc1C1CC(O)(C(c2ccc(Cl)cc2)c2cc3cc(Cl)ccc3[nH]c2=O)CCN1` (stereo not drawn) (as salt: hydrochloride) [Compound 303], the melting point was above 250 °C. Then `CS(=O)(=O)c1ccc2[nH]c(=O)c(C(c3cccc(Cl)c3)C3(O)CCNC(Cc4ccc(F)cc4F)C3)cc2c1` (stereo not drawn) (as salt: hydrochloride) [Compound 307], with 232 °C; and `CS(=O)(=O)c1ccc2[nH]c(=O)c(C(c3cccc(Cl)c3)C3(O)CCNC(Cc4ccc(F)cc4F)C3)cc2c1` (stereo not drawn) (as salt: hydrochloride) [Compound 308], with above 260 °C; and `CSc1ccc2[nH]c(=O)c(C(c3cccc(Cl)c3)C3(O)CCNC(Cc4ccc(F)cc4F)C3)cc2c1` (stereo not drawn) (as salt: hydrochloride) [Compound 309], with above 260 °C. As for `CSc1ccc2[nH]c(=O)c(C(c3cccc(Cl)c3)C3(O)CCNC(Cc4ccc(F)cc4F)C3)cc2c1` (stereo not drawn) (as salt: hydrochloride) [Compound 310], the melting point was 126 °C. In turn, `O=c1[nH]c2ccc(Br)cc2cc1C(c1ccc(Cl)cc1)C1(O)CCNC(Cc2ccc(F)cc2F)C1` (stereo not drawn) (as salt: hydrochloride) [Compound 314] returned a melting point of 234 °C. `O=c1[nH]c2ccc(Br)cc2cc1C(c1ccc(Cl)cc1)C1(O)CCNC(Cc2ccc(F)cc2F)C1` (stereo not drawn) (as salt: hydrochloride) [Compound 315]: the melting point was above 260 °C.

For `O=c1[nH]c2ccc(Br)cc2cc1C(c1ccc(Cl)cc1)C1(O)CCNC(Cc2ccc(F)cc2F)C1` (stereo not drawn) (as salt: hydrochloride) [Compound 322], the melting point was 248 °C. `CS(=O)(=O)c1ccc2[nH]c(=O)c(C(c3cccc(Cl)c3)C3(O)CCNC(Cc4ccc(F)cc4F)C3)cc2c1` (stereo not drawn) (as salt: hydrochloride) [Compound 327] registered a melting point of 248 °C. `CSc1ccc2[nH]c(=O)c(C(c3ccc(Cl)cc3)C3(O)CCNC(Cc4ccc(F)cc4)C3)cc2c1` (stereo not drawn) (as salt: hydrochloride) [Compound 334] gave a melting point of 232 °C.

In turn, `O=c1[nH]c2ccc(Br)cc2cc1C(c1ccc(Cl)cc1)C1(O)CCNC(Cc2ccc(F)cc2)C1` (stereo not drawn) (as salt: hydrochloride) [Compound 341] gave a melting point above 260 °C. In turn, `O=c1[nH]c2ccc(Cl)cc2cc1C(c1ccc(Cl)cc1)C1(O)CCNC(Cc2ccc(F)cc2)C1` (stereo not drawn) (as salt: hydrochloride) [Compound 343] registered a melting point above 250 °C. Regarding `CSc1ccc(C(c2cc3cc(Cl)ccc3[nH]c2=O)C2(O)CCNC(c3ccc(F)cc3C)C2)cc1` (stereo not drawn) (as salt: hydrochloride) [Compound 349], the melting point was above 250 °C. `O=c1[nH]c2ccc(Br)cc2cc1C(c1ccc(Cl)cc1)C1(O)CCNC(Cc2ccc(F)cc2)C1` (stereo not drawn) (as salt: hydrochloride) [Compound 365] came in with a melting point of 242 °C. In turn, `O=c1[nH]c2ccc(F)cc2cc1C(c1ccc(Cl)cc1)C1(O)CCNC(Cc2ccccc2)C1` (stereo not drawn) (as salt: hydrochloride) [Compound 375] returned a melting point above 250 °C. `O=c1[nH]c2ccc(Cl)cc2cc1C(c1ccc(Cl)cc1)C1(O)CCNCC1F` (stereo not drawn) (as salt: hydrochloride) [Compound 457] gave a melting point above 250 °C.
